ChEMBL document CHEMBL3232858, “Antiangiogenic activity of hypoxylonol C” (J Nat Prod, 2014)
Activity calls are given as the source filed them.

Assays:
Conditions in all cases: Homo sapiens
[1] = tested on: HUVEC; experiment: Antiangiogenic activity in HUVEC assessed as reduction of VEGF-induced vascular endothelial cadherin mRNA level at 20 uM after 24 hrs by RT-PCR analysis; format: functional, cell-based
[2] = tested on: HUVEC; experiment: Antiangiogenic activity in HUVEC assessed as reduction of VEGF-induced CDK1 mRNA level at 20 uM after 24 hrs by RT-PCR analysis; format: functional, cell-based
[3] = tested on: HUVEC; experiment: Antiangiogenic activity in HUVEC assessed as inhibition of VEGF-induced cell migration at 1 to 20 uM after 22 hrs
[4] = tested on: HUVEC; experiment: Antiangiogenic activity in HUVEC assessed as reduction of VEGF-induced tube length at 1 to 20 uM after 11 days; format: functional, cell-based
[5] = tested on: HUVEC; experiment: Antiangiogenic activity in HUVEC assessed as reduction of VEGF-induced integrins alpha3 and beta1 mRNA level at 20 uM after 24 hrs by RT-PCR analysis; format: functional, cell-based
[6] = tested on: HUVEC; experiment: Antiangiogenic activity in HUVEC assessed as reduction of VEGF-induced cyclins A2 and B1 mRNA level at 20 uM after 24 hrs by RT-PCR analysis; format: functional, cell-based
[7] = tested on: HUVEC; experiment: Antiangiogenic activity in HUVEC assessed as inhibition of VEGF-induced tube formation at 1 to 20 uM after 11 days; format: functional, cell-based
[8] = tested on: HUVEC; experiment: Antiangiogenic activity in HUVEC assessed as inhibition of VEGF-induced tube formation after 11 days; format: functional, cell-based
[9] = tested on: HUVEC; experiment: Antiangiogenic activity in HUVEC assessed as inhibition of VEGF-induced cell migration after 22 hrs

O=C1C[C@H]2C(=C3c4c2ccc(O)c4[C@@H](O)C[C@@H]3O)c2cccc(O)c21
active: Activity [1] | Activity [2] | inhibition [3] | inhibition [4] | Activity [5] | Activity [6] | inhibition [7] | inhibition [8] Dose-dependent effect | inhibition [9] Dose-dependent effect
